Experimental data: publication PMC4832243, “Discovery of Potent VEGFR-2 Inhibitors based on Furopyrimidine and Thienopyrimidne Scaffolds as Cancer Targeting Agents” (Scientific Reports, 2016)

Tests used:
NCI-H226 = assay: NCI 60 cell line panel (SRB), NCI-H226; format: cell-based; conditions: Homo sapiens; NCI-H226, Non-Small Cell Lung Cancer; single dose of 10 μM; read-out: Cell Growth Percent
SN12C = assay: NCI 60 cell line panel (SRB), SN12C; format: cell-based; conditions: Homo sapiens, Renal Cancer, single dose of 10 μM, read-out: Cell Growth Percent
ACHN = assay: NCI 60 cell line panel (SRB), ACHN; format: cell-based; conditions: Homo sapiens, Renal Cancer, single dose of 10 μM, read-out: Cell Growth Percent
HL-60(TB) = assay: NCI 60 cell line panel (SRB), HL-60(TB); format: cell-based; conditions: Homo sapiens, Leukemia, single dose of 10 μM, read-out: Cell Growth Percent
TK-10 = assay: NCI 60 cell line panel (SRB), TK-10; format: cell-based; conditions: Homo sapiens; TK-10, Renal Cancer; single dose of 10 μM; read-out: Cell Growth Percent
HCT-15 = assay: NCI 60 cell line panel (SRB), HCT-15; format: cell-based; conditions: Homo sapiens; HCT-15, Colon Cancer; single dose of 10 μM; read-out: Cell Growth Percent
EKVX = assay: NCI 60 cell line panel (SRB), EKVX; format: cell-based; conditions: Homo sapiens, Non-Small Cell Lung Cancer, single dose of 10 μM, read-out: Cell Growth Percent
SK-MEL-2 = assay: NCI 60 cell line panel (SRB), SK-MEL-2; format: cell-based; conditions: Homo sapiens; SK-MEL-2, Melanoma; single dose of 10 μM; read-out: Cell Growth Percent
MCF7 = assay: NCI 60 cell line panel (SRB), MCF7; format: cell-based; conditions: Homo sapiens; MCF7, Breast Cancer; single dose of 10 μM; read-out: Cell Growth Percent
HCC-2998 = assay: NCI 60 cell line panel (SRB), HCC-2998; format: cell-based; conditions: Homo sapiens; HCC-2998, Colon Cancer; single dose of 10 μM; read-out: Cell Growth Percent
VEGFR-2 (KDR) = molecular target: T1, VEGFR-2 (KDR) (Homo sapiens, UniProt P35968); assay: In vitro VEGFR-2 tyrosine kinase activity (Kinase-Glo Plus luminescence, BPS Bioscience); format: biochemical; conditions: single dose concentration of 10 μM
T1 construct: purchased BPS Bioscience 40301

SF-539 = assay: NCI 60 cell line panel (SRB), SF-539; format: cell-based; conditions: Homo sapiens; SF-539, CNS Cancer; single dose of 10 μM; read-out: Cell Growth Percent
UACC-62 = assay: NCI 60 cell line panel (SRB), UACC-62; format: cell-based; conditions: Homo sapiens; UACC-62, Melanoma; single dose of 10 μM; read-out: Cell Growth Percent
UACC-257 = assay: NCI 60 cell line panel (SRB), UACC-257; format: cell-based; conditions: Homo sapiens; UACC-257, Melanoma; single dose of 10 μM; read-out: Cell Growth Percent
SF-295 = assay: NCI 60 cell line panel (SRB), SF-295; format: cell-based; conditions: Homo sapiens; SF-295, CNS Cancer; single dose of 10 μM; read-out: Cell Growth Percent
M14 = assay: NCI 60 cell line panel (SRB), M14; format: cell-based; conditions: Homo sapiens; M14, Melanoma; single dose of 10 μM; read-out: Cell Growth Percent
SK-OV-3 = assay: NCI 60 cell line panel (SRB), SK-OV-3; format: cell-based; conditions: Homo sapiens; SK-OV-3, Ovarian Cancer; single dose of 10 μM; read-out: Cell Growth Percent
MDA-MB-231/ATCC = assay: NCI 60 cell line panel (SRB), MDA-MB-231/ATCC; format: cell-based; conditions: Homo sapiens, Breast Cancer, single dose of 10 μM, read-out: Cell Growth Percent
SR = assay: NCI 60 cell line panel (SRB), SR; format: cell-based; conditions: Homo sapiens, Leukemia, single dose of 10 μM, read-out: Cell Growth Percent
NCI/ADR-RES = assay: NCI 60 cell line panel (SRB), NCI/ADR-RES; format: cell-based; conditions: Homo sapiens, Ovarian Cancer, single dose of 10 μM, read-out: Cell Growth Percent
OVCAR-8 = assay: NCI 60 cell line panel (SRB), OVCAR-8; format: cell-based; conditions: Homo sapiens; OVCAR-8, Ovarian Cancer; single dose of 10 μM; read-out: Cell Growth Percent
HS 578T = assay: NCI 60 cell line panel (SRB), HS 578T; format: cell-based; conditions: Homo sapiens, Breast Cancer, single dose of 10 μM, read-out: Cell Growth Percent
SNB-75 = assay: NCI 60 cell line panel (SRB), SNB-75; format: cell-based; conditions: Homo sapiens; SNB-75, CNS Cancer; single dose of 10 μM; read-out: Cell Growth Percent
MDA-MB-435 = assay: NCI 60 cell line panel (SRB), MDA-MB-435; format: cell-based; conditions: Homo sapiens; MDA-MB-435, Melanoma; single dose of 10 μM; read-out: Cell Growth Percent

T1 sequence (P35968 20-1356): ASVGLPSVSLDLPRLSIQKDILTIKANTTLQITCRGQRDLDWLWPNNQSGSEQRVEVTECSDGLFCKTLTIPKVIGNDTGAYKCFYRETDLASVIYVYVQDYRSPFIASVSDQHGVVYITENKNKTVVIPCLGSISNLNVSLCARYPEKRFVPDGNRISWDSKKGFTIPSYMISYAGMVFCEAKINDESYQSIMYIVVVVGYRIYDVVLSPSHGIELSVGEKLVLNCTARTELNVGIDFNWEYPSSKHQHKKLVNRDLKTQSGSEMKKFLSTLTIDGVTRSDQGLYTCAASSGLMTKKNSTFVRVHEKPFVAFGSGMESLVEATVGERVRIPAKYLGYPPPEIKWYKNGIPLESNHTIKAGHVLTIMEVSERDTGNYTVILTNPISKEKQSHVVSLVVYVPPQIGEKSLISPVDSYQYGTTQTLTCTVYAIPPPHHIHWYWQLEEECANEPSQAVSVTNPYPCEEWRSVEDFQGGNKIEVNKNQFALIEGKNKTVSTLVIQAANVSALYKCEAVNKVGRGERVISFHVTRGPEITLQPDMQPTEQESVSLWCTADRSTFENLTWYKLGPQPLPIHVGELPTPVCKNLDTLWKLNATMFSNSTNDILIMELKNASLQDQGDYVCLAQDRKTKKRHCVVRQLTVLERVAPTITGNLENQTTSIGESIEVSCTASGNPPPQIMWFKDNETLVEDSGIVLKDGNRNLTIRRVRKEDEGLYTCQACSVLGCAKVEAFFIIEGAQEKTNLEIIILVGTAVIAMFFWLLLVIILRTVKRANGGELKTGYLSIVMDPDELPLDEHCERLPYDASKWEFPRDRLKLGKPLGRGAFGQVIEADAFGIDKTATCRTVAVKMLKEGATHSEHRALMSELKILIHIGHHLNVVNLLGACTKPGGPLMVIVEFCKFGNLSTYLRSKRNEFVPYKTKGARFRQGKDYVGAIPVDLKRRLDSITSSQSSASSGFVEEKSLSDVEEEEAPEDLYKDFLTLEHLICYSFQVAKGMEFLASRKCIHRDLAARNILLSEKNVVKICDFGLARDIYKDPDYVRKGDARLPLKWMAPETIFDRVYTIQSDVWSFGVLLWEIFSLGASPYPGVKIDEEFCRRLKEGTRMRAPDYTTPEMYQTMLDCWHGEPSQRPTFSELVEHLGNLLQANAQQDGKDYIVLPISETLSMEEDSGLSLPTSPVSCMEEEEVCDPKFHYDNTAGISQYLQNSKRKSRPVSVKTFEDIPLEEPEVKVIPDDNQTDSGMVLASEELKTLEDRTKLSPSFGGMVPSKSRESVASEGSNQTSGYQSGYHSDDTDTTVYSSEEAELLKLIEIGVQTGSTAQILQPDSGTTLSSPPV

Structure (SMILES) | activity at 10 µM (NCI-H226) | activity at 10 µM (SN12C) | activity at 10 µM (ACHN) | activity at 10 µM (HL-60(TB)) | activity at 10 µM (TK-10) | activity at 10 µM (HCT-15) | activity at 10 µM (EKVX) | activity at 10 µM (SK-MEL-2) | activity at 10 µM (MCF7) | activity at 10 µM (HCC-2998) | inhibition at 10 µM (VEGFR-2 (KDR)) | activity at 10 µM (SF-539) | activity at 10 µM (UACC-62) | activity at 10 µM (UACC-257) | activity at 10 µM (SF-295) | activity at 10 µM (M14) | activity at 10 µM (SK-OV-3) | activity at 10 µM (MDA-MB-231/ATCC) | activity at 10 µM (SR) | activity at 10 µM (NCI/ADR-RES) | other results
CCOC(=O)c1c(C)oc2ncnc(Nc3ccc(C(=O)Nc4cccc(Cl)c4)cc3)c12 [Compound 14a] | 97% | 94.1% | 114% | 105% | 102% | 108% | 102% | 99.8% | 90.6% | 105% | 5% | 107% | 67.6% | 117% | 115% | 95.2% | 112% | 95.8% | 74.8% | 99.4% | melting point: 226 to 230 °C; activity at 10 µM (OVCAR-8): 103%; activity at 10 µM (HS 578T): 107%; activity at 10 µM (SNB-75): 105%; activity at 10 µM (MDA-MB-435): 106%
CCOC(=O)c1c(C)oc2ncnc(Nc3ccc(C(=O)Nc4ccc(OC)cc4)cc3)c12 [Compound 14b] | 94.2% | 103% | 95.2% | 88.6% | 102% | 88.5% | 91.1% | 107% | 95.6% | 114% | 8% | 63.8% | 93.4% | 94.7% | 99.3% | 101% | 94.1% | 91% | 74.6% | 88.7% | melting point: 218 to 222 °C; activity at 10 µM (OVCAR-8): 98.9%; activity at 10 µM (HS 578T): 83.7%; activity at 10 µM (SNB-75): 87.2%; activity at 10 µM (MDA-MB-435): 106%
CCOC(=O)c1c(C)oc2ncnc(Nc3ccc(C(=O)NCCc4ccccc4)cc3)c12 [Compound 14e] | 63.1% | 99.3% | 88.7% | 87.6% | 102% | 92.2% | 90.3% | 82.4% | 78.6% | 91.4% | 10% | 58.9% | 94.9% | 79.6% | 90.4% | 81.2% | 85.5% | 85.6% | 89.2% | 76.9% | melting point: 176 to 180 °C; activity at 10 µM (OVCAR-8): 76.6%; activity at 10 µM (HS 578T): 51.2%; activity at 10 µM (SNB-75): 7%; activity at 10 µM (MDA-MB-435): 87.5%
CCOC(=O)c1c(C)oc2ncnc(Nc3ccc(NC(=O)Nc4cccc(Cl)c4)cc3)c12 [Compound 15d] | 54.8% | 73.9% | 57.4% | 88.4% | 79.1% | 58.9% | 72.3% | 72.7% | 43.3% | 105% | 61% | 16.6% | 69.1% | 83.9% | 79.5% | 48.6% | 93.2% | 18.6% | 53.6% | 43.7% | activity at 10 µM (OVCAR-8): 50.2%; activity at 10 µM (HS 578T): 80.6%; activity at 10 µM (SNB-75): 70.6%; activity at 10 µM (MDA-MB-435): 65.8%
